The target in assay [1] is AaeR (SSON_3385). Particulars: AaeR labelled with L014 Monolith protein labeling kit; 60% LED power, 40% MST power.
For assay [2], the target named is T1, UbiC (SSON_4219) (Shigella sonnei, UniProt Q3YUU5).
T1 construct: intact ubiC gene in pET28a(+), His-tagged fusion, expressed in E. coli BL21(DE3), His-Tag column
The assay is described as follows: in vitro conversion to 4-HBA. The format is biochemical. Particulars: product 4-hydroxybenzoic acid.

By Kd is commonly meant the concentration at which binding is half-saturated.

Structures are written as SMILES.

T1 sequence (Q3YUU5 whole entry, the tested form may be a part): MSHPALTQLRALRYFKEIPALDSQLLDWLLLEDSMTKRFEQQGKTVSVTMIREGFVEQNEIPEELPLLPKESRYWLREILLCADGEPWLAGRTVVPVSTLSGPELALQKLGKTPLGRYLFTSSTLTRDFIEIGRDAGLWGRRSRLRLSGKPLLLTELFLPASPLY

`O=C(O)c1ccc(O)cc1` [4-hydroxybenzoic acid] gave a Kd in assay [1] of 23.1 ± 0.76 µM.
For `C=C(O[C@@H]1C=C(C(=O)O)C=C[C@H]1O)C(=O)O` [chorismic acid], in assay [2], the “in vitro conversion to 4-HBA” value is listed as “UbiC directly catalyzed the conversion of chorismic acid to 4-HBA”.

The record behind these values is article PMC10269604, “A 4-Hydroxybenzoic Acid-Mediated Signaling System Controls the Physiology and Virulence of Shigella sonnei” (Microbiology Spectrum, 2023).
